Measured values published in ChEMBL document CHEMBL1156434, “A nonpeptidic agonist of glucagon-like peptide 1 receptors with efficacy in diabetic db/db mice” (Proc Natl Acad Sci U S A, 2007).
Values belong to the compound of their own block, whether it stands above or below them. Activity calls are given as the source filed them. The rule behind the calls is not given here.

Assays:
Mus musculus [1] = species on record: Mus musculus; experiment: Decrease in fasting insulin in C57BL/6-m+/+Leprdb mouse at 1 mg; assay type: functional, organism-based
Mus musculus [2] = species on record: Mus musculus; experiment: Decrease in fasting insulin in C57BL/6-m+/+Leprdb mouse at 2 mg; assay type: functional, organism-based
Mus musculus [3] = experiment: Suppression of food intake in C57BL/6 mouse at 2 mg, ip after 12 hrs; assay type: functional
Mus musculus [4] = experiment: Decrease in HbA1c levels in C57BL/6-m+/+Leprdb mouse at 2 mg, ip; assay type: functional, organism-based
Mus musculus [5] = experiment: Suppression of food intake in po dosed C57BL/6 mouse after 2 hrs; assay type: functional
Mus musculus [6] = species on record: Mus musculus; experiment: Effect on glucose excursion in C57BL/6-m+/+Leprdb mouse assessed as glucose tolerance normalization at 2 mg; assay type: functional, organism-based
Mus musculus [7] = species on record: Mus musculus; experiment: Effect on glycemia in C57BL/6-m+/+Leprdb mouse assessed as HbA1c normalization at 1 mg; assay type: functional, organism-based
Mus musculus [8] = species on record: Mus musculus; experiment: Toxicity in C57BL/6 mouse treated upto 6 weeks; assay type: organism-based; conditions: in vivo, 1008 h
[9] = target: T1, Glucagon-like peptide 1 receptor (Rattus norvegicus) (UniProt P32301); experiment: Reversal of agonist activity at rat GLP1 receptor expressed in HEK293 cells assessed as luciferase activity at 0.05 uM in presence of exendin; assay type: functional, cell-based
T1 sequence (whole entry): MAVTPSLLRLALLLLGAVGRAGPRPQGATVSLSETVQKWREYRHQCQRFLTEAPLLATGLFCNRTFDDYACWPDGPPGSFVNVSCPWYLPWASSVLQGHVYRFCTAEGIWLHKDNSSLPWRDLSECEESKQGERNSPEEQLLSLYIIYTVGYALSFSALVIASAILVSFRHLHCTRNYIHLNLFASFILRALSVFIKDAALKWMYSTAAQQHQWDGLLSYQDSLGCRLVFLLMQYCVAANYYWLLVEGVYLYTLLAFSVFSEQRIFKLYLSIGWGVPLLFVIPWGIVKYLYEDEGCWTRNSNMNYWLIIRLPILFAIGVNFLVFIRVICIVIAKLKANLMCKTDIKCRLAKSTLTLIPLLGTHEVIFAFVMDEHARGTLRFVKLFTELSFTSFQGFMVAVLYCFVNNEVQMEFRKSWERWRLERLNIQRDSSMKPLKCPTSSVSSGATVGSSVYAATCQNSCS

[10] = target: T2, Glucagon-like peptide 1 receptor (Rattus norvegicus, UniProt P32301); experiment: (§1) Displacement of [125I]GLP1 from rat GLP1 receptor expressed in HEK293 cells; assay type: cell-based
T2 sequence (P32301 whole entry): T1 sequence (whole entry)

Mus musculus [11] = species on record: Mus musculus; experiment: Decrease in total cholesterol in C57BL/6-m+/+Leprdb mouse at 2 mg; assay type: functional, organism-based
Mus musculus [12] = species on record: Mus musculus; experiment: Decrease in high density lipoprotein in C57BL/6-m+/+Leprdb mouse at 2 mg; assay type: functional, organism-based
[13] = target: Glucagon-like peptide 1 receptor (Homo sapiens) (UniProt P43220); experiment: Activity at human GLP1 receptor expressed in HEK293 cells; assay type: cell-based
[14] = Terminal half life in C57BL/6 mouse at 2 mg, ip; assay type: ADME, organism-based; conditions: in vivo
[15] = Induction of glucose-induced insulin release in Sprague-Dawley rat islets at 10 uM relative to control; assay type: functional
Mus musculus [16] = experiment: Suppression of food intake in ip dosed C57BL/6 mouse after 12 hrs; assay type: functional
Mus musculus [17] = experiment: Decrease in HbA1c levels in ip dosed C57BL/6-m+/+Leprdb mouse at 8 mg, ip; assay type: functional, organism-based
Mus musculus [18] = species on record: Mus musculus; experiment: Effect on glycemia in C57BL/6-m+/+Leprdb mouse assessed as HbA1c normalization at 2 mg; assay type: functional, organism-based
Mus musculus [19] = experiment: Decrease in HbA1c levels in C57BL/6-m+/+Leprdb mouse at 1 mg, ip; assay type: functional, organism-based
Mus musculus [20] = experiment: Reversal of suppression of food intake in ip dosed C57BL/6 mouse after 12 hrs in presence of exendin; assay type: functional, organism-based
Mus musculus [21] = species on record: Mus musculus; experiment: Effect on glycemia in C57BL/6-m+/+Leprdb mouse assessed as fasting glucose normalization at 1 mg; assay type: functional, organism-based
Mus musculus [22] = experiment: Reversal of suppression of food intake in po dosed C57BL/6 mouse after 2 hrs in presence of exendin; assay type: functional, organism-based
Mus musculus [23] = experiment: Decrease in food intake in ip dosed C57BL/6-m+/+Leprdb mouse; assay type: functional; set-up: scale not given: the % may be the effect or the level left
[24] = target: T1, Glucagon-like peptide 1 receptor (Rattus norvegicus); experiment: Reversal of agonist activity at rat GLP1 receptor expressed in HEK293 cells assessed as luciferase activity at 10 uM in presence of exendin; assay type: functional, cell-based
[25] = target: T1, Glucagon-like peptide 1 receptor (Rattus norvegicus); experiment: Agonist activity at rat GLP1 receptor expressed in HEK293 cells assessed as luciferase activity upto 10 uM relative to GLP1; assay type: functional, cell-based
[26] = target: T2, Glucagon-like peptide 1 receptor; experiment: (§2) Agonist activity at rat GLP1 receptor expressed in HEK293 cells assessed as cAMP release; assay type: functional, cell-based
Mus musculus [27] = species on record: Mus musculus; experiment: Effect on glycemia in C57BL/6-m+/+Leprdb mouse assessed as fasting glucose normalization at 2 mg; assay type: functional, organism-based
HEK293 = experiment: Toxicity in HEK293 cells upto 300 uM by MTT assay; assay type: cell-based; conditions: human
[28] = target: T1, Glucagon-like peptide 1 receptor (Rattus norvegicus); experiment: as §1; assay type: cell-based
[29] = target: T1, Glucagon-like peptide 1 receptor (Rattus norvegicus); experiment: Agonist activity at rat GLP1 receptor expressed in HEK293 cells assessed as luciferase activity; assay type: functional, cell-based
[30] = target: T1, Glucagon-like peptide 1 receptor (Rattus norvegicus); experiment: as §2; assay type: functional, cell-based
[31] = Induction of glucose-induced insulin release in Sprague-Dawley rat islets at 100 uM relative to control; assay type: functional

Glucagon-like peptide 1 receptor (Homo sapiens), sequence (P43220 whole entry): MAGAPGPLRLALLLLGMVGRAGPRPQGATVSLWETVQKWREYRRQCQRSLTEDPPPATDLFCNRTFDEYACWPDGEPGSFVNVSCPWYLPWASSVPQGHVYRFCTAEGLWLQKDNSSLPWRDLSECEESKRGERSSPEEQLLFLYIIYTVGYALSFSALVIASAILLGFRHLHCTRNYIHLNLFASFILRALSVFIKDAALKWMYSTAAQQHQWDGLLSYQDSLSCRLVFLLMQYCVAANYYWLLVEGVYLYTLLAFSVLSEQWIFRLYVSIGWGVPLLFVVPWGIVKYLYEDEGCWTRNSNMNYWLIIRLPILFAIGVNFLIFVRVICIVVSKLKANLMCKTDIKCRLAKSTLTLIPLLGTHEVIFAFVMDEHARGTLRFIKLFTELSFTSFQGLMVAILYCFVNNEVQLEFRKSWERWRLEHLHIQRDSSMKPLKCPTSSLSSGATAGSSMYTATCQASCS

Activity [9]: Active
Ki [10]: 1470 nM
Activity [13]: inactive
half-life [14]: 7.5 h
Activity [24]: Active
Activity [25]: Active
EC50 [26]: 2730 nM
Structure (SMILES): COc1cc(C2C(NC(=O)c3ccc(NC(=O)OC(C)(C)C)cc3)(C(=O)O)C(c3ccc(OC(=O)c4cccs4)c(OC)c3)C2(NC(=O)c2ccc(NC(=O)OC(C)(C)C)cc2)C(=O)O)ccc1OC(=O)c1cccs1 (stereo not drawn)
Activity (Mus musculus [1]): Active
Activity (Mus musculus [2]): Active
Activity (Mus musculus [3]): 54%
Activity (Mus musculus [4]): Active
ED50 (Mus musculus [5]): 0.53 mg
Activity (Mus musculus [6]): Active
Activity (Mus musculus [7]): Active
Activity (Mus musculus [8]): Non-toxic
Activity (Mus musculus [11]): Active
Activity (Mus musculus [12]): Active
fold change (FC) [15]: 4.5
ED50 (Mus musculus [16]): 1.57 mg
Activity (Mus musculus [17]): Active
Activity (Mus musculus [18]): Active
Activity (Mus musculus [19]): Active
Activity (Mus musculus [20]): Active
Activity (Mus musculus [21]): Active
Activity (Mus musculus [22]): Active
Activity (Mus musculus [23]): 24.9%
Activity (Mus musculus [27]): Active
Activity (HEK293): Non-toxic

Activity [28]: Active
Activity [29]: Active
Activity [30]: Active
Structure (SMILES): CCOc1cc(/C=C2\N=C(c3ccc(NC(C)=O)cc3)OC2=O)ccc1OC(=O)c1cccs1

Activity [9]: Active
Ki [10]: 287 nM
Activity [13]: inactive
Activity [24]: Active
Activity [25]: 37%
EC50 [26]: 1080 nM
Structure (SMILES): COc1cc(C2C(NC(=O)c3ccc(NC(=O)C4CCCC4)cc3)(C(=O)O)C(c3ccc(OC(=O)c4cccs4)c(OC)c3)C2(NC(=O)c2ccc(NC(=O)C3CCCC3)cc2)C(=O)O)ccc1OC(=O)c1cccs1 (stereo not drawn)
fold change (FC) [31]: 2.6
